These results are taken from article PMC2745596 (Bioorganic & Medicinal Chemistry Letters, 2008).

One assay concerns SARS-CoV Urbani strain. In kind it is cell-based.
The next assay concerns the target SARS-CoV 3CLpro (Severe acute respiratory syndrome coronavirus, UniProt P0C6X7). In kind it is biochemical.

`O=C(On1nnc2ccccc21)c1ccc2[nH]ccc2c1` [Inhibitor 3]: the “antiviral activity (in words)” value in the assay with SARS-CoV Urbani strain was “did not exhibit any antiviral activity”. Consider `O=C(Oc1cncc(Cl)c1)c1cccc2[nH]ccc12` [Inhibitor 10], for which the “potency enhancement over 5 (enzyme IC50)” value at SARS-CoV 3CLpro is 10 fold.
